Reference: patent publication US20070167452A1, “Therapeutic amide derivatives” (PFIZER, INC., priority 2004, published 2007)

Assays:
[1] = molecular target: T1, NR2B receptor (Rattus norvegicus, UniProt P35439+Q00960); assay: NR2B Binding Assay; settings: for IC50: forebrain P2 membranes of male CD rats, 5 nM [3H] NR2B ligand
T1 construct: Membranes were prepared by homogenization of forebrain of male CD rats; from tissue; host or cells: forebrain of male CD rats (P2 membrane)
Protocol: The activity of the cycloalkylene amide compounds of the present invention, as NR2B antagonists, is determined by their ability to inhibit the binding of NR2B subunit at its receptor sites employing radioactive ligands.
The NR^2B antagonist activity of the cycloalkylene amide compounds is evaluated by using the standard assay procedure described in, for example, J. Pharmacol., 331, pp 117-126, 1997. This method essentially involves determining the concentration of the individual compound required to reduce the amount of radiolabelled NR2B ligands by 50% at their receptor sites, thereby affording characteristic IC50 values for each compound tested. More specifically, the assay is carried out as follows.
Membranes were prepared by homogenization of forebrain of male CD rats weighing between 170˜190 g by using glass-Teflon homogenizer in 0.32 M sucrose at 4° C. The crude nuclear pellet was removed by centrifugation at 1000×g for 10 min, and the supernatant centrifuged at 17000×g for 25 min. The resulting pellet was resuspended in 5 mM Tris acetate pH 7.4 at 4° C. for 10 min to lyse cellular particles and again centrifuged at 17000×g. The resulting pellet (P2 membrane) was washed twice in Tris acetate, resuspended at 5.5 mg protein/ml and stored at −20° C. until use. All the manipulation was done on ice, and stock solution and equipment were kept on ice at all time.
For the saturation assay, receptor saturation was determined by incubating [^3H]-1-[(1S*,2S*)-2-hydroxy-2-(4-hydroxyphenyl)-1-methylethyl]-4-phenylpiperidin-4-ol and 50 μg protein of P2 membrane for 60 minutes at room temperature in a final 100 μl of incubation buffer (50 mM Tris HCl, pH7.4). Total and non-specific bindings (in the presence of 10 μM of unlabeled 1-[(1S*,2S*)-2-hydroxy-2-(4-hydroxyphenyl)-1-methylethyl]-4-phenylpiperidin-4-ol) were determined in a range of [^3H]-1-[(1S*,2S*)-2-hydroxy-2-(4-hydroxyphenyl)-1-methylethyl]-4-phenylpiperidin-4-ol concentrations (0.625 nM to 60 nM).
For the competition assay, test compounds were incubated in duplicate with 5 nM [^3H]-1-[(1S*,2S*)-2-hydroxy-2-(4-hydroxyphenyl)-1-methylethyl]-4-phenylpiperidin-4-ol and 50 μg protein of P2 membrane for 60 minutes at room temperature in a final 100 μl of 50 mM Tris HCl buffer (pH7.4). Nonspecific binding was determined by 10 μM of unlabeled 1-[(1S*,2S*)-2-hydroxy-2-(4-hydroxyphenyl)-1-methylethyl]-4-phenylpiperidin-4-ol (25 μl). The saturation derived KD gained in saturation assay was used for all Ki calculations.
All incubations were terminated by rapid vacuum filtration over 0.2% polyethyleneimine soaked Whatman GF/B glass fibre filter paper using a SKATRON cell harvester followed by three washes with ice-cold filtration buffer (5 mM Tris HCl, pH 7.4.). Receptor-bound radioactivity was quantified by liquid scintillation counting using Packard LS counter. Competition assays were performed by counting Wallac GF/B filters on Betaplate scintillation counter (Wallac).

[2] = molecular target: Human HERG (Homo sapiens, UniProt Q12809); assay: Human Dofetilide Binding Assay
Chain of Human HERG (Q12809 whole entry): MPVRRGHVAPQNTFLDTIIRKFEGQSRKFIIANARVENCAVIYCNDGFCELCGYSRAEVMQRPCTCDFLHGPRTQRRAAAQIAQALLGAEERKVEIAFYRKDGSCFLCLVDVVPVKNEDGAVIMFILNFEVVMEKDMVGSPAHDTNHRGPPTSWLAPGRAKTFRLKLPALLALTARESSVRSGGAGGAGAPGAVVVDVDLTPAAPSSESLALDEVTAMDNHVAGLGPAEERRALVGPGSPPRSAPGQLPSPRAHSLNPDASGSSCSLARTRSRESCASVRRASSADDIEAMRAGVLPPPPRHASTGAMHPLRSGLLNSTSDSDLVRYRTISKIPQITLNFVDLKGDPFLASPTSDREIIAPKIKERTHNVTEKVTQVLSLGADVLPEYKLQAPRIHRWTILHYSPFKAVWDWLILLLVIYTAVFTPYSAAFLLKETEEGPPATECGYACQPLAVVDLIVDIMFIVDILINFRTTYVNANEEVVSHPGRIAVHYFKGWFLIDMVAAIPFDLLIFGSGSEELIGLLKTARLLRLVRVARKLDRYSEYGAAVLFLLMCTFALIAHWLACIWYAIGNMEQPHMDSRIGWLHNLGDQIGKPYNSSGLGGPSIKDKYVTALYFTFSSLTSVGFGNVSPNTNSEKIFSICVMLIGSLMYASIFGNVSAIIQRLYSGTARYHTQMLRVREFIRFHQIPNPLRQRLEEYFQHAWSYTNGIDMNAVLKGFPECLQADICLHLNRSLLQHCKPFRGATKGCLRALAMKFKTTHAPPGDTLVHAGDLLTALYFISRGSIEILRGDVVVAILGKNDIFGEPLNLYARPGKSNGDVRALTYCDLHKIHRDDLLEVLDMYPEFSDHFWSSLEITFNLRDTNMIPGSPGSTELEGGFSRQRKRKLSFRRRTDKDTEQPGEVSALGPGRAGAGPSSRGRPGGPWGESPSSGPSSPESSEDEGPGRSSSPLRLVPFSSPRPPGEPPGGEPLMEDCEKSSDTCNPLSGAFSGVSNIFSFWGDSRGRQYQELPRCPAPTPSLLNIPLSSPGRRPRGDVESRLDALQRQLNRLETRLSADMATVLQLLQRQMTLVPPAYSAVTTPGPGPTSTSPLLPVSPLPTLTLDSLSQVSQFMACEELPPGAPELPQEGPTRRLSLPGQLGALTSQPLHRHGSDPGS

T1 sequence (Q00960 27-1482, other chains not shown): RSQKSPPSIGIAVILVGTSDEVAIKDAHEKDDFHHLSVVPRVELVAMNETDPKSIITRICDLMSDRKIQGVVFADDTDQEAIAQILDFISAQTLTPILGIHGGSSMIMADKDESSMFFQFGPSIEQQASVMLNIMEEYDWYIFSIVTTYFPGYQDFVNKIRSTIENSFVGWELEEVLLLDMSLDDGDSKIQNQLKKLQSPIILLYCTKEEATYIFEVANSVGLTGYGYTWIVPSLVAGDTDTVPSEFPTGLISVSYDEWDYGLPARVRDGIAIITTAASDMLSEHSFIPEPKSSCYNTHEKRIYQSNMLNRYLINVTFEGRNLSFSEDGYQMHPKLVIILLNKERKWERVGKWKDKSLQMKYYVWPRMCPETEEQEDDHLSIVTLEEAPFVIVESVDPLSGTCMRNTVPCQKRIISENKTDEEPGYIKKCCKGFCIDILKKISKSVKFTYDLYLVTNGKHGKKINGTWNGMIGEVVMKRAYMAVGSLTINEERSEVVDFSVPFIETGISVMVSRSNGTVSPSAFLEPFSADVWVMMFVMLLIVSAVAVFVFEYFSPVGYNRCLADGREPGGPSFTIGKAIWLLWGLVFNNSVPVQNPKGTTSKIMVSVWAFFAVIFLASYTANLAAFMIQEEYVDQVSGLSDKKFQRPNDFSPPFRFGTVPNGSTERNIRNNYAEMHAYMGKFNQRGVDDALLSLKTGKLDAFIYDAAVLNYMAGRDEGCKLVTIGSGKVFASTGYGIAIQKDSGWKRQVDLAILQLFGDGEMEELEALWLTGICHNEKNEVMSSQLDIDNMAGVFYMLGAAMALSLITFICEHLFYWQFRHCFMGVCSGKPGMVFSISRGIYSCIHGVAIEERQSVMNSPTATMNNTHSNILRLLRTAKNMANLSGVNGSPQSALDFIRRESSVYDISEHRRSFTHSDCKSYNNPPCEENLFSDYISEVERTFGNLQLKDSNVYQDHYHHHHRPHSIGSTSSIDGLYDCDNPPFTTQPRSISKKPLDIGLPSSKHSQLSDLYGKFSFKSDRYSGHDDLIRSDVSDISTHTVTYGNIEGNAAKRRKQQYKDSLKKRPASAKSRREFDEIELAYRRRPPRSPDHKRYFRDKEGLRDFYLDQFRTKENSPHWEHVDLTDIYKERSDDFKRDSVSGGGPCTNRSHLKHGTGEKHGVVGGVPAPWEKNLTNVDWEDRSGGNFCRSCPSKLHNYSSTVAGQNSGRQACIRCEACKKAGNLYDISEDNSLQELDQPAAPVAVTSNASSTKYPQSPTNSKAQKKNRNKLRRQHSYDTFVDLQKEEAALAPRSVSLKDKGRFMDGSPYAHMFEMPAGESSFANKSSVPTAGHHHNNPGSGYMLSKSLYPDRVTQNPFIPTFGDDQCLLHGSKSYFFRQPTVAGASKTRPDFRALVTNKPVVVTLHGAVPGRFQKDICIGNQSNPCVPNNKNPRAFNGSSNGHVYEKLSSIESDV

For `O=C(NC[C@]1(O)CC[C@H](COc2cc(F)cc(F)c2)CC1)c1ccc(O)cc1` [Example 13, N-({trans-4-[(3,5-Difluorophenoxy)methyl]-1-hydroxycyclohexyl}methyl)-4-hydroxybenzamide], which IC50 [1] is on record?
Its IC50 is 30 nM.

And the melting point?
The melting point was 102.4 °C.

What about the IC50 [2] of the same compound?
The IC50 was 62600 nM.

With `O=C(NC[C@]1(O)CC[C@H](COCc2ccc(F)cc2)CC1)c1ccc(O)c(F)c1` [Example 64, 3-Fluoro-N-[(trans-4-{[(4-fluorobenzyl)oxy]methyl}-1-hydroxycyclohexyl)methyl]-4-hydroxybenzamide] as the compound, how does the IC50 [1] read?
Its IC50 is 26.5 nM.

And the melting point?
Its melting point is 155.9 °C.

And the IC50 [2]?
Its IC50 is over 100000 nM.

For `O=C(NC[C@]1(O)CC[C@H](COc2ccc(F)cc2)CC1)c1ccc(O)cc1` [Example 9, N-({trans-4-[(4-Fluorophenoxy)methyl]-1-hydroxcyclohexyl}methyl)-4-hydroxybenzamide], which IC50 [1] is on record?
Its IC50 is 7.5 nM.

What about the melting point of the same compound?
The melting point was 176.4 °C.

And the IC50 [2]?
The IC50 was 26300 nM.

For `O=C(NC[C@]1(O)CC[C@H](COc2ccccc2F)CC1)c1ccc(O)cc1` [Example 11, N-({trans-4-[(2-Fluorophenoxy)methyl]-1-hydroxycyclohexyl}methyl)-4-hydroxybenzamide], which Ki ([1]; competition assay, rat forebrain P2 membranes, read-out: Ki value, binding affinity for the NR2B receptor) is on record?
The Ki was 6.2 nM.

And the IC50 [1]?
Its IC50 is 8.5 nM.

And the melting point?
The melting point was 185 °C.

What about the IC50 [2] of the same compound?
Its IC50 is over 100000 nM.

With `O=C(NC[C@]1(O)CC[C@H](COc2ccccc2)CC1)c1ccc(O)c(F)c1` [Example 62, 3-Fluoro-4-hydroxy-N-{[trans-1-hydroxy-4-(phenoxymethyl)cyclohexyl]methyl}benzamide] as the compound, how does the IC50 [1] read?
Its IC50 is 9.1 nM.

And the melting point?
The melting point was 183.5 °C.

What about the IC50 [2] of the same compound?
The IC50 was over 30000 nM.

What does the source list for `O=C(NC[C@H]1CC[C@@H](COc2ccccc2)CC1)c1cn[nH]c1` [Example 73, N-{[cis-4-(Phenoxymethyl)cyclohexyl]methyl}-1H-pyrazole-4-carboxamide]?
IC50 [1]: 15.4 nM; melting point: 150.1 °C; IC50 [2]: > 30000 nM

For `O=C(NC[C@]1(O)CC[C@H](COCc2cccc(F)c2)CC1)c1ccc(O)cc1` [Example 23, N-[(trans-4-{[(3-Fluorobenzyl)oxy]methyl}-1-hydroxycyclohexyl)methyl]-4-hydroxybenzamide], which IC50 [1] is on record?
Its IC50 is 28.6 nM.

And the melting point?
The melting point was 167.6 °C.

What about the IC50 [2] of the same compound?
The IC50 was over 100000 nM.

Which results are given for `O=C(NC[C@]1(O)CC[C@H](COc2cccc(F)c2)CC1)c1ccc(O)cc1` [Example 10, N-({trans-4-[(3-Fluorophenoxy)methyl]-1-hydroxycyclohexyl}methyl)-4-hydroxybenzamide]?
IC50 [1]: 12 nM; melting point: 186 °C; IC50 [2]: 25800 nM

With `O=C(NC[C@]1(O)CC[C@H](CCOc2ccccc2)CC1)c1ccc(O)c(F)c1` [Example 63, 3-Fluoro-4-hydroxy-N-{[trans-1-hydroxy-4-(2-phenoxyethyl)cyclohexyl]methyl}benzamide] as the compound, how does the IC50 [1] read?
Its IC50 is 6.2 nM.

What about the melting point of the same compound?
The melting point was 164 °C.

What about the IC50 [2] of the same compound?
The IC50 was over 30000 nM.

What does the source list for `O=C(NC[C@]1(O)CC[C@H](CCOc2ccccc2F)CC1)c1cn[nH]c1` [Example 56, N-({trans-4-[2-(2-Fluorophenoxy)ethyl]-1-hydroxycyclohexyl}methyl)-1H-pyrazole-4-carboxamide]?
IC50 [1]: 30.2 nM; melting point: 175.1 °C; IC50 [2]: > 100000 nM

For `O=C(NC[C@]1(O)CC[C@H](OCc2ccccc2F)CC1)c1ccc(O)cc1` [Example 48, N-({trans-4-[(2-Fluorobenzyl)oxy]-1-hydroxycyclohexyl}methyl)-4-hydroxybenzamide], which IC50 [1] is on record?
Its IC50 is 25.5 nM.

And the melting point?
The melting point was 162.9 °C.

What about the IC50 [2] of the same compound?
The IC50 was over 100000 nM.

Which IC50 [1] does the source give for `O=C(NC[C@]1(O)CC[C@@H](Oc2ccc(Cl)cc2)CC1)c1ccc(O)c(F)c1` [Example 34, N-{[cis-4-(4-Chlorophenoxy)-1-hydroxycyclohexyl]methyl}-3-fluoro-4-hydroxybenzamide] here?
Its IC50 is 14.7 nM.

And the melting point?
The melting point was 168.1 °C.

What about the IC50 [2] of the same compound?
Its IC50 is over 30000 nM.

For `Cc1ccccc1OC[C@H]1CC[C@@](O)(CNC(=O)c2ccc(O)cc2)CC1` [Example 17, 4-Hydroxy-N-({trans-1-hydroxy-4-[(2-methylphenoxy)methyl]cyclohexyl}methyl)benzamide], which IC50 [1] is on record?
The IC50 was 23.4 nM.

What about the melting point of the same compound?
The melting point was 189.1 °C.

What about the IC50 [2] of the same compound?
Its IC50 is over 100000 nM.

For `O=C(NC[C@]1(O)CC[C@H](COCc2ccc(F)cc2)CC1)c1ccc(O)cc1` [Example 24, N-[(trans-4-{[(4-Fluorobenzyl)oxy]methyl}-1-hydroxycyclohexyl)methyl]-4-hydroxybenzamide], which IC50 [1] is on record?
The IC50 was 21.8 nM.

And the melting point?
The melting point was 167.6 °C.

What about the IC50 [2] of the same compound?
Its IC50 is 97000 nM.

For `O=C(NC[C@]1(O)CC[C@H](COCc2ccccc2F)CC1)c1ccc(O)cc1` [Example 22, N-[(trans-4-{[(2-Fluorobenzyl)oxy]methyl}-1-hydroxycyclohexyl)methyl]-4-hydroxybenzamide], which IC50 [1] is on record?
The IC50 was 11 nM.

And the melting point?
Its melting point is 174.3 °C.

And the IC50 [2]?
Its IC50 is over 100000 nM.

Which IC50 [1] does the source give for `O=C(NC[C@]1(O)CC[C@H](COc2ccc(F)cc2)CC1)c1ccc(O)c(F)c1` [Example 66, 3-Fluoro-N-({trans-4-[(4-fluorophenoxy)methyl]-1-hydroxycyclohexyl}methyl)-4-hydroxybenzamide] here?
Its IC50 is 12.6 nM.

And the melting point?
The melting point was 181.6 °C.

What about the IC50 [2] of the same compound?
Its IC50 is over 100000 nM.

Which IC50 [1] does the source give for `O=C(NC[C@]1(O)CC[C@H](COCc2ccccc2)CC1)c1ccc(O)cc1` [Example 21, N-({trans-4-[(Benzyloxy)methyl]-1-hydroxycyclohexyl}methyl)-4-hydroxybenzamide] here?
Its IC50 is 11.4 nM.

What about the melting point of the same compound?
The melting point was 165.7 °C.

What about the IC50 [2] of the same compound?
The IC50 was over 100000 nM.

With `Cc1cccc(OC[C@H]2CC[C@@](O)(CNC(=O)c3ccc(O)cc3)CC2)c1` [Example 18, 4-Hydroxy-N-({trans-1-hydroxy-4-[(3-methylphenoxy)methyl]cyclohexyl}methyl)benzamide] as the compound, how does the IC50 [1] read?
Its IC50 is 15.2 nM.

What about the melting point of the same compound?
Its melting point is 201.4 °C.

And the IC50 [2]?
Its IC50 is over 100000 nM.

What does the source list for `O=C(NC[C@]1(O)CC[C@H](COCc2ccccc2)CC1)c1ccc(O)c(F)c1` [Example 60, N-({trans-4-[(Benzyloxy)methyl]-1-hydroxycyclohexyl}methyl)-3-fluoro-4-hydoxybenzamide]?
IC50 [1]: 18.2 nM; melting point: 162.5 °C; IC50 [2]: > 100000 nM

What does the source list for `O=C(NC[C@]1(O)CC[C@H](COc2ccc(Cl)cc2)CC1)c1ccc(O)cc1` [Example 16, N-({trans-4-[(4-Chlorophenoxy)methyl]-1-hydroxycyclohexyl}methyl)-4-hydroxybenzamide]?
IC50 [1]: 19.8 nM; melting point: 208.2 °C; IC50 [2]: > 100000 nM

For `O=C(NC[C@]1(O)CC[C@H](COc2cccc(Cl)c2)CC1)c1ccc(O)cc1` [Example 15, N-({trans-4-[(3-Chlorophenoxy)methyl]-1-hydroxycyclohexyl}methyl)-4-hydroxybenzamide], which IC50 [1] is on record?
Its IC50 is 21 nM.

And the melting point?
Its melting point is 164.9 °C.

And the IC50 [2]?
The IC50 was 20700 nM.

With `Cc1ccc(OC[C@H]2CC[C@@](O)(CNC(=O)c3ccc(O)cc3)CC2)cc1` [Example 19, 4-Hydroxy-N-({trans-1-hydroxy-4-[(4-methylphenoxy)methyl]cyclohexyl}methyl)benzamide] as the compound, how does the IC50 [1] read?
The IC50 was 7.7 nM.

What about the melting point of the same compound?
The melting point was 203.1 °C.

And the IC50 [2]?
Its IC50 is over 100000 nM.

With `O=C(NC[C@]1(O)CC[C@H](Oc2ccc(Cl)cc2)CC1)c1ccc(O)c(F)c1` [Example 33, N-{[trans-4-(4-Chlorophenoxy)-1-hydroxycyclohexyl]methyl}-3-fluoro-4-hydroxybenzamide] as the compound, how does the IC50 [1] read?
The IC50 was 19.3 nM.

And the IC50 [2]?
Its IC50 is 95600 nM.
